# Marks after values point to notes of the source that are not given here.
# What was measured:
# [1] = system: patients suffering from advanced cancers; experiment: Clinical trials in more than 200 patients with advanced cancers; assay type: in vivo, human
# mice [2] = experiment: Effect of the opioid receptor antagonist naloxone on morphine- and sophoridine-induced analgesia; assay type: in vivo
# Description: Following procedures of the previous Examples, screening and grouping of experimental animals was carried out. […] The animals of negative control were injected with normal saline. The pain thresholds (response latency time, seconds, of each animal was recorded at 15, 30, 60, and 90 minutes after administrations, respectively. The results are summarized in Table 4 below.
# tumor cells = conditions: cited from earlier work
# Kunming mice = experiment: Analgesic effect of sophoridine on mice models (acetic acid induced writhing method); assay type: in vivo; conditions: for Number of writhe (X ± SD): 0.6% acetic acid i.p.
# Description: The analgesic activity of sophoridine was also tested in vivo in mice experimental models, using acetic acid induced writhing Method which are known to evaluate the pain in animals. Writhing test is a standard procedure for detecting and comparing analgesic activity in laboratory animals, and generally correlates well with human efficacy.
# 30 Male and 30 female Kunming mice weighing 18-22 g were used as experimental models. […] Then, the animals randomly divided into six groups, each group includes 10 animals. Five experimental groups intravenously received 25, 20, 15, 10 and 5 mg/Kg of the sophoridine suspended in a normal saline solution via the tail vein, respectively.
# The frequency of writhing syndrome was counted for 5 minutes from 15 minutes after the injection of spophoridine or placebo. The control group received treatment only with the solvent (normal saline).
# [3] = system: acetylcholine level in central nervous system; experiment: Preliminary study on mechanism of analgesic effect (acetylcholine level in CNS)
# Excerpt: Therefore, sophoridine and derivatives thereof are also useful for treating patients suffering from neurodegenerative diseases, senile dementia of the Alzheimer's type (SDAT) and Pakinson's disease (PD).
# Male Kunming mice = experiment: Analgesic effect of sophoridine on mice model (hot plate method); assay type: in vivo; conditions: for Pain thresholds (seconds) After administration: 10 minutes after administration; for Pain thresholds (seconds) Before administration: before administration (baseline)
# Description: The analgesic activity of sophoridine was tested in vivo in mice experimental models, using Hot Plate Method, which are known to evaluate the pain in animals.
# The method that was used is described by Eddy N. B. and Leimbach D. (J. Pharm. Exp. Ther. 107: 385-393, 1953) and somewhat modification is made in the present invention.
# Male Kunming mice weighing 18-22 g were used as experimental model. The analgesic effect of the sophoridine was evaluated by analysing the behavioral response of the animals on a hot surface at 55° C.±0.5° C. The alkaloid compounds being tested were administered intravenously through the tail vein 10 minutes before starting the test.
# Briefly, the process consisted of placing the animals on the plate and keeping them in a plastic cylinder 22 cm diameter and 11 cm high. The time the animals took to lick a paw or jump off the hot surface was determined. The animals were selected before starting the test that those with response latency (the pain threshold values before administrations) longer than 30 seconds were excluded from the experiment. The certificated animals divided into six groups (10 animals/group). Five experimental groups received 25, 20, 15, 10 and 5 mg/kg of the sophoridine suspended in a normal saline solution, respectively. The control group received treatment only with the solvent (normal saline).
# 10 minutes after administering the alkaloids being tested, the test was repeated and the maximum response latency time (seconds) took the animals to lick the hindlimb or jump off and run away was again recorded.
# mice [4] = experiment: Comparison of analgesic effects and synergistic activity between sophoridine and morphine (hot plate method); assay type: in vivo; conditions: for Pain thresholds before admin.: before admin. (baseline)
# Description: In five experimental groups, animals of each group received 25, 20, 15, 10 and 5 mg/kg of the sophoridine suspended in a normal saline solution, respectively.
# [5] = sophoridine 25 mg/kg i.v., hot plate 55°C
smiles,measurement,setting,value
O=C1C=CC[C@@H]2[C@H]3CCCN4CCC[C@@H](CN12)[C@@H]34 [sophocarpine],effect on pain caused by malignant growth of cancer tissues (in words),[1],significantly inhibit or alleviate mild to severe pain
same,effect on proliferation of tumor cells (in words),[1],inhibit proliferation of tumor cells
O=C1CCC[C@@H]2[C@H]3CCCN4CCC[C@H](CN12)[C@@H]34 [Sophoridine],naloxone counteracting the analgesic effect (in words),"mice [2]; naloxone 2.0 mg/kg, morphine 10 mg/kg or sophoridine 20 mg/kg",ineffective in counteracting the effect
same,Pain thresholds after admin. (seconds) 15 min.,"mice [2]; sophoridine alone 20 mg/kg i.v., 15 min.",34.5 ± 16.2 s
same,Pain thresholds after admin. (seconds) 30 min.,"mice [2]; sophoridine alone 20 mg/kg i.v., 30 min.",23.8 ± 7.0 s
same,Pain thresholds after admin. (seconds) 60 min.,"mice [2]; sophoridine alone 20 mg/kg i.v., 60 min.",21.8 ± 8.9 s
same,Pain thresholds after admin. (seconds) 90 min.,"mice [2]; sophoridine alone 20 mg/kg i.v., 90 min.",18.3 ± 6.6 s
same,Pain thresholds before admin.,"mice [2]; sophoridine alone 20 mg/kg i.v., before admin. (baseline)",17.9 ± 2.6 s
same,anti-tumor activities (in words),tumor cells; Xuemei Li et al. 1987,tumor cell-killing and tumor cell growth-inhibiting activities
same,effect on functions of hematopoietic and immunological systems (in words),tumor cells; Xuemei Li et al.,does not inhibit the functions of hematopoietic and immunological systems
same,Number of writhe (X ± SD),Kunming mice; sophoridine 5 mg/kg i.v.,23.2 ± 6.43
same,Number of writhe (X ± SD),Kunming mice; sophoridine 10 mg/kg i.v.,14.1 ± 9.64
same,Number of writhe (X ± SD),Kunming mice; sophoridine 15 mg/kg i.v.,9.9 ± 6.3
same,Number of writhe (X ± SD),Kunming mice; sophoridine 20 mg/kg i.v.,1.5 ± 1.35
same,Number of writhe (X ± SD),"Kunming mice; sophoridine 25 mg/kg i.v., counted for 5 minutes from 15 minutes after injection",0***
same,analgesic activity in mice models (in words),"Kunming mice; writhing method, 5-25 mg/kg i.v.",good analgesic activity
same,acetylcholine level in central nervous system (in words),[3],significant increasing acetylcholine level
same,analgesic activity in mice models (in words),"Male Kunming mice; hot plate method, 5-25 mg/kg i.v.",good analgesic activity
same,Pain thresholds (seconds) After administration,Male Kunming mice; sophoridine 5 mg/kg i.v.,25.8 ± 20.74 s
same,Pain thresholds (seconds) Before administration,Male Kunming mice; sophoridine 5 mg/kg i.v.,16.3 ± 6.02 s
same,Pain thresholds (seconds) After administration,Male Kunming mice; sophoridine 10 mg/kg i.v.,24.8 ± 15.99 s
same,Pain thresholds (seconds) Before administration,Male Kunming mice; sophoridine 10 mg/kg i.v.,11.7 ± 4.59 s
same,Pain thresholds (seconds) After administration,Male Kunming mice; sophoridine 15 mg/kg i.v.,38.5 ± 17.19 s
same,Pain thresholds (seconds) Before administration,Male Kunming mice; sophoridine 15 mg/kg i.v.,14.7 ± 4.62 s
same,Pain thresholds (seconds) After administration,Male Kunming mice; sophoridine 20 mg/kg i.v.,57.1 ± 6.10 s
same,Pain thresholds (seconds) Before administration,Male Kunming mice; sophoridine 20 mg/kg i.v.,12.4 ± 4.25 s
same,Pain thresholds (seconds) After administration,Male Kunming mice; [5],48.6 ± 19.14 s
same,Pain thresholds (seconds) Before administration,Male Kunming mice; [5],16.4 ± 6.48 s
same,Pain thresholds after admin. (seconds) 15 min.,mice [4]; sophoridine 5 mg/kg,17.5 ± 3.3 s
same,Pain thresholds after admin. (seconds) 30 min.,mice [4]; sophoridine 5 mg/kg,16.6 ± 6.5 s
same,Pain thresholds after admin. (seconds) 60 min.,mice [4]; sophoridine 5 mg/kg,16.0 ± 4.5 s
same,Pain thresholds after admin. (seconds) 90 min.,mice [4]; sophoridine 5 mg/kg,19.3 ± 5.4 s
same,Pain thresholds before admin.,mice [4]; sophoridine 5 mg/kg,17.45 ± 2.6 s
same,Pain thresholds after admin. (seconds) 15 min.,mice [4]; sophoridine 10 mg/kg,20.2 ± 7.2 s
same,Pain thresholds after admin. (seconds) 30 min.,mice [4]; sophoridine 10 mg/kg,28.0 ± 18.3 s
same,Pain thresholds after admin. (seconds) 60 min.,mice [4]; sophoridine 10 mg/kg,12.6 ± 5.9 s
same,Pain thresholds after admin. (seconds) 90 min.,mice [4]; sophoridine 10 mg/kg,20.5 ± 15.0 s
same,Pain thresholds before admin.,mice [4]; sophoridine 10 mg/kg,18.6 ± 4.9 s
same,Pain thresholds after admin. (seconds) 15 min.,mice [4]; sophoridine 15 mg/kg,32.9 ± 19.2 s
same,Pain thresholds after admin. (seconds) 30 min.,mice [4]; sophoridine 15 mg/kg,31.3 ± 17.5 s
same,Pain thresholds after admin. (seconds) 60 min.,mice [4]; sophoridine 15 mg/kg,15.2 ± 10.2 s
same,Pain thresholds after admin. (seconds) 90 min.,mice [4]; sophoridine 15 mg/kg,15.8 ± 5.7 s
same,Pain thresholds before admin.,mice [4]; sophoridine 15 mg/kg,16.45 ± 3.9 s
same,Pain thresholds after admin. (seconds) 15 min.,mice [4]; sophoridine 20 mg/kg,36.8 ± 18.2 s
same,Pain thresholds after admin. (seconds) 30 min.,mice [4]; sophoridine 20 mg/kg,24.6 ± 7.7 s
same,Pain thresholds after admin. (seconds) 60 min.,mice [4]; sophoridine 20 mg/kg,23.0 ± 9.9 s
same,Pain thresholds after admin. (seconds) 90 min.,mice [4]; sophoridine 20 mg/kg,19.3 ± 6.6 s
same,Pain thresholds before admin.,mice [4]; sophoridine 20 mg/kg,16.9 ± 2.5 s
same,Pain thresholds after admin. (seconds) 15 min.,mice [4]; sophoridine 25 mg/kg,44.3 ± 14.9 s
same,Pain thresholds after admin. (seconds) 30 min.,mice [4]; sophoridine 25 mg/kg,28.3 ± 11.4 s
same,Pain thresholds after admin. (seconds) 60 min.,mice [4]; sophoridine 25 mg/kg,20.3 ± 4.9 s
same,Pain thresholds after admin. (seconds) 90 min.,mice [4]; sophoridine 25 mg/kg,18.8 ± 6.3 s
same,Pain thresholds before admin.,mice [4]; sophoridine 25 mg/kg,15.4 ± 4.0 s
same,analgesic activity compared to morphine hydrochloride (in words),"mice [4]; sophoridine in higher doses, hot plate",comparable or better analgesic activity
same,effect on pain caused by malignant growth of cancer tissues (in words),[1],significantly inhibit or alleviate mild to severe pain
same,effect on proliferation of tumor cells (in words),[1],inhibit proliferation of tumor cells
same,side effects of tolerance and addiction (in words),[1]; higher doses for a long term,did not develop any side effects of tolerance and addiction
